This is an account of results in patent US10028992B2, “Methods of treating muscular dystrophy” (BOARD OF REGENTS OF THE NEVADA SYSTEM OF HIGHER EDUCATION …, priority 2012, dated 2018).

The assay deals with α7 integrin promoter. Put plainly: muscle cell-based assay: α7βgal+/− myoblasts/myotubes, LacZ reporter, β-galactosidase cleavage of FDG. Also noted: species or system mouse. Particulars: for AC50: read-out: Fit Log AC50 (converted); for Emax: read-out: Max Response [%]; for Fit HillSlope: curve fit; for Fit Zero Activity [%]: fitted activity at zero concentration; for Fit Curve Class: key not given; for Score: Table 12 Compound data, concentration-response curve fit. The method, then: An α7 integrin null mouse was produced in which exon 1 of the gene encoding the α7 integrin was replaced by the LacZ reporter. In these mice, all the transcriptional regulatory elements of the α7 integrin promoter were retained, allowing β-galactosidase to report expression of 7 integrin. A primary myoblast cell line (designated α7βgal^+/−) isolated from 10 day old α7^+/− pups were analyzed for the ability of β-galactosidase to report α7 integrin expression. α7βgal^+/− myoblasts were differentiated and subjected to X-gal staining and western analysis (FIGS. 1A and 1B).
The activity of the α7 integrin promoter was measured by β-galactosidase cleavage of the non-fluorescent compound fluorescein di-β-D-galactopyranoside (FDG) to fluorescein. This assay was used to screen compound libraries to identify molecules that up-regulate α7 integrin expression in muscle.
Also evaluated was the effect of various isoforms of laminin and the ligand for α7β1 integrin on integrin expression. Positive hits were subjected to dose-response analysis, western analysis and a myostatin counterscreen (a negative regulator of muscle growth).

Setting [1] is: Mus musculus, Table 12, log of AC50, given with negative sign, unit of AC50 not given.

“And” between values parts separate entries of the source, which are not always exact repeats. Equal entries are not always repeated. Where two headings read alike, the source gives them in different places.

What is called EC50 is the concentration that produces a half-maximal response. What is called AC50 is the concentration giving half of the maximal activity seen.

Consider `O=C(COc1ccc(Cl)cc1)N1CCN(C2CCCC2)CC1.O=C(O)C(=O)O`, for which the “Results in a α7+/− β-galactosidase assay, Myotubes, 0.5 uM” value (shortened to “Results … 0.5 uM”) is given as 0.1096; the “Results in a α7+/− β-galactosidase assay, Myotubes, 1 uM” value (“Results … 1 uM” below) is reported as 0.06035; the “Results in a α7+/− β-galactosidase assay, Myotubes, 5 uM” value (“Results … Myotubes, 5 uM” below) is on record as −0.07324; the “Results in a α7+/− β-galactosidase assay, Myotubes, 10 uM” value (“Results … 10 uM” for short) is −0.04013. The “Results in a α7+/− β-galactosidase assay, Myotubes, 20 uM” value (from here on “Results … 20 uM”) was −0.1813 and the “Results in a α7+/− β-galactosidase assay, Myotubes, 40 uM” value (from here on “Results … 40 uM”) is recorded as −0.2711.
Turning to `O=C(Nc1ccccc1Cl)C1CCCN1C(=O)OCc1ccccc1` (stereo not shown), the “Results … 0.5 uM” value was −0.04746; the “Results … 1 uM” value was −0.07012; the “Results … Myotubes, 5 uM” value is −0.00214; the “Results … 10 uM” value was −0.05774. The “Results … 20 uM” value is on record as −0.1932 and the “Results … 40 uM” value is −0.2694.
For `C#CC1(O)CCC2C3CCC4=C/C(=N/OCC(=O)NCC(=O)NC(C(=O)O)C(C)C)CC[C@]4(C)C3CC[C@@]21C` (stereo partly shown), the “Results … 0.5 uM” value is 0.1086; the “Results … 1 uM” value turned out to be 0.2546; the “Results … Myotubes, 5 uM” value was 0.3822; the “Results … 10 uM” value worked out at 0.2484. For the same compound, the “Results … 20 uM” value was 0.1342 and the “Results … 40 uM” value came out at 0.073.
Regarding `O=C1Nc2ccccc2/C1=C/c1c[nH]cn1`, the “Results … 0.5 uM” value was −0.09659; the “Results … 1 uM” value worked out at 0.04801; the “Results … Myotubes, 5 uM” value was found to be 0.2975; the “Results … 10 uM” value worked out at 0.1108. For the same compound, the “Results … 20 uM” value is reported as 0.1916 and the “Results … 40 uM” value turned out to be 0.1189.
Consider `Cc1ccc(NS(=O)(=O)c2cccc(C(=O)O)c2)cc1S(=O)(=O)N1CCOCC1`, for which, under “Myotubes, compound at 5 uM”, the “Results … Myotubes, 5 uM” value is 0.6308 and 0.5052.
In the case of `COc1cc([N+](=O)[O-])cc(/C=N/NC(=O)C(O)(c2ccccc2)c2ccccc2)c1O`, the “Results … 0.5 uM” value is given as 0.1119; the “Results … 1 uM” value is −0.01127; the “Results … Myotubes, 5 uM” value was −0.4224; the “Results … 10 uM” value was −0.4434. In addition, the “Results … 20 uM” value is listed as −0.2622 and the “Results … 40 uM” value is −0.3132.
For `Cc1cc(C2CCCCC2)n(O)c(=O)c1` [Ciclopirox ethanolamine, ciclopirox ethanolamine, reference compound], the EC50 (Mus musculus, enhancement of α7 integrin expression in muscle cells, read-out: EC50) was determined as 0.6 µg/mL. For the setting “enhancement of α7 integrin expression in muscle cells”, the “Optimal Concentration” value turned out to be 4 µg/mL.
As to `CC(OC(=O)c1cc(-c2cccnc2)nc2ccccc12)C(=O)Nc1ccc2ccccc2c1` (stereo not shown) [Compound 1], the “Activity at 0.307 μM [%] **” value is recorded as 0% and the Score turned out to be 94. In addition, the AC50 under setting [1] is 1.12 µM. Moreover, under “Mus musculus”, the Emax was 191%. Further, under “Table 12”, the “Fit HillSlope” value turned out to be 3.132, the “Fit Zero Activity [%]” value is −2.9752% and the “Fit Curve Class” value worked out at 1.1.
Regarding `Cc1cccc(OCc2nc(C#N)c(N3CCCC3)o2)c1` [Compound 2], the “Activity at 7.660 μM [%] **” value was determined as 175.022% and the Score worked out at 91. In addition, the concentration at half-maximal activity (AC50) under setting [1] is 3.55 µM. Further, the Emax (Mus musculus) amounted to 223%. Besides, for the setting “Table 12”, the “Fit HillSlope” value is 1.4163, the “Fit Zero Activity [%]” value is recorded as 3.1995% and the “Fit Curve Class” value is reported as 1.1.
On to `COc1ccccc1-c1coc2c3c(ccc2c1=O)OC1CCCCN1C3` (stereo not shown) [Compound 3], for which the Score was 89. Further, under setting [1], the half-maximal activity concentration (AC50) was 2.24 µM. In addition, under “Mus musculus”, the Emax was 159%. Further, where the note is “Table 12”, the “Fit HillSlope” value is on record as 3.0654, the “Fit Zero Activity [%]” value is on record as −35.3084% and the “Fit Curve Class” value was determined as 1.1.
Compound `Cc1ccccc1C(=O)Nc1scc(-c2ccc(Br)cc2)c1C(=O)O` [Compound 4] came in with a Score of 87. For the same compound, the AC50 under setting [1] is 2.82 µM. For the same compound, the Emax (Mus musculus) amounted to 137%. Besides, under “Table 12”, the “Fit HillSlope” value was 1.8617, the “Fit Zero Activity [%]” value turned out to be 7.6069% and the “Fit Curve Class” value is on record as 1.1.
For the compound `COc1cc2c(cc1NC(=O)Cc1ccc(C)cc1)oc1ccccc12` [Compound 5], the “Activity at 38.30 μM [%] **” value is given as 87.1241% and the Score worked out at 86. Besides, under setting [1], the AC50 was 1.12 µM. Further, the Emax (Mus musculus) came out at 87.1%. In addition, for the setting “Table 12”, the “Fit HillSlope” value stood at 2.5334, the “Fit Zero Activity [%]” value is listed as −5.0637% and the “Fit Curve Class” value worked out at 1.1.
For the compound `COCc1c(C(=O)OCc2nc(=O)c3sccc3[nH]2)oc2ccccc12` [Compound 6], the Score is given as 85. For the same compound, under setting [1], the AC50 is 1.12 µM. Also, the Emax (Mus musculus) came to 68.1%. Further, where the note is “Table 12”, the “Fit HillSlope” value came out at 1.3437, the “Fit Zero Activity [%]” value is on record as −58.5311% and the “Fit Curve Class” value amounted to 1.1.
Regarding `O=C(NC1CCCC1)c1ccc(CS(=O)(=O)Cc2ccccc2F)o1` [Compound 7], the Score was found to be 85. In addition, the AC50 under setting [1] is 4.47 µM. For the setting “Mus musculus”, the Emax was 105%. Where the note is “Table 12”, the “Fit HillSlope” value worked out at 1.6924, the “Fit Zero Activity [%]” value stood at 12.5% and the “Fit Curve Class” value was found to be 1.1.
With `CN(C)S(=O)(=O)c1cccc(C(=O)Nc2ccc3c(c2)CCC3)c1` [Compound 8], the Score is 85. Under setting [1], the half-maximal activity concentration (AC50) is 2.82 µM. Moreover, for the setting “Mus musculus”, the Emax stood at 94.3%. For the setting “Table 12”, the “Fit HillSlope” value came to 4.9549, the “Fit Zero Activity [%]” value was −15.6523% and the “Fit Curve Class” value was found to be 1.1.
Regarding `Cc1c(C(=O)O)cccc1-n1c(C)cc(/C=N/Nc2ccc([N+](=O)[O-])cn2)c1C` [Compound 9], the “Max Response [%]” value is reported as 88.6572%, the “Activity at 0.307 μM [%] **” value is −24.4743%, the “Activity at 7.660 μM [%] **” value was determined as 68.0567% and the “Activity at 38.30 μM [%] **” value worked out at 88.6572%. In addition, the Score came to 85. In addition, the “Activity at 1.530 μM [%] **” value (1.530 μM) is recorded as 6.2893%. Moreover, where the note is “Table 12”, the “Fit HillSlope” value amounted to 1.3723, the “Fit Zero Activity [%]” value is recorded as −30.5005% and the “Fit Curve Class” value is given as 1.1. The “Fit Infinite Activity [%]” value (Table 12, fitted activity at infinite concentration) is recorded as 92.2022%. Moreover, the “Fit Log AC50” value (Table 12, log of AC50, given with negative sign, unit of AC50 not given) is −5.55.
Take `Cc1ccc(NP(=O)(Nc2ccc(C)cc2)Nc2ccc(C)cc2)cc1` [Compound 10]: the “Activity at 0.307 μM [%] **” value was 0% and the Score is recorded as 85. Besides, the AC50 under setting [1] is 3.16 µM. The Emax (Mus musculus) amounted to 102%. Also, under “Table 12”, the “Fit HillSlope” value worked out at 2.8473, the “Fit Zero Activity [%]” value was 0% and the “Fit Curve Class” value came to 1.1.
With `Cc1cc(OCC(=O)NC(C)C)ccc1Cl` [Compound 11], the “Activity at 0.307 μM [%] **” value is given as 0% and the Score is given as 85. In addition, the AC50 under setting [1] was 3.98 µM. Where the note is “Mus musculus”, the Emax worked out at 102%. Where the note is “Table 12”, the “Fit HillSlope” value worked out at 2.5334, the “Fit Zero Activity [%]” value is −0.509% and the “Fit Curve Class” value is 1.1.
In turn, `COC(=O)C1=C(C)N=C(C)/C(=C(/O)OC)C1c1ccccc1OCc1c(C)no[n+]1[O-]` (stereo not shown) [Compound 12] came in with a Score of 85. Moreover, the AC50 under setting [1] was 2.82 µM. Further, for the setting “Mus musculus”, the Emax was 100%. Moreover, for the setting “Table 12”, the “Fit HillSlope” value was 1.4781, the “Fit Zero Activity [%]” value is recorded as 9.3996% and the “Fit Curve Class” value was 1.1.
With `COc1ccc(NC(=O)c2cccc(N3C(=O)c4ccc(C(=O)Nc5ccc(OC)c(O)c5)cc4C3=O)c2)cc1O` [Compound 13], the Score is 84. Besides, under setting [1], the AC50 is 4.47 µM. Moreover, the Emax (Mus musculus) came out at 95.6%. Further, where the note is “Table 12”, the “Fit HillSlope” value came to 3.9295, the “Fit Zero Activity [%]” value is reported as −27.2857% and the “Fit Curve Class” value is 1.1.
As to `CCOc1ccc(S(=O)(=O)NCCC(=O)NCC(c2cccs2)N2CCOCC2)cc1` (stereo not shown) [Compound 14], the Score worked out at 84. The AC50 under setting [1] is 2.24 µM. Under “Mus musculus”, the Emax was found to be 61.7%. Besides, where the note is “Table 12”, the “Fit HillSlope” value stood at 2.3332, the “Fit Zero Activity [%]” value is −21.9345% and the “Fit Curve Class” value stood at 1.1.
`CCOc1ccccc1NC(=O)c1cccc2c1C(=O)N(C1CCCCC1)C2` [Compound 15] gave a Score of 84. The AC50 under setting [1] was 3.16 µM. The Emax (Mus musculus) turned out to be 73.6%. Moreover, under “Table 12”, the “Fit HillSlope” value is 1.6259, the “Fit Zero Activity [%]” value is given as −16.1195% and the “Fit Curve Class” value is given as 1.1.
Compound `NC(=O)c1nsc(C(=O)N(c2ccccc2)C(C(=O)NCc2ccc(F)cc2)c2ccc(O)cc2)c1N` (stereo not shown) [Compound 16] came in with a Score of 84. In addition, under setting [1], the AC50 was 2.24 µM. Besides, for the setting “Mus musculus”, the Emax is 75.2%. Under “Table 12”, the “Fit HillSlope” value worked out at 1.3443, the “Fit Zero Activity [%]” value is on record as −37.8568% and the “Fit Curve Class” value was 1.1.
